In US20240109912A1, “TRICYCLIC PYRIMIDINES AS CYCLIN-DEPENDENT KINASE 7 (CDK7) INHIBITORS” (JANSSEN PHARMACEUTICA NV, priority 2020, published 2024):
“And” between values parts separate entries of the source, which are not always exact repeats. Equal entries are not always repeated. Where two headings read alike, the source gives them in different places.

Columns and labels:
[1] = test system: RNA polymerase II Serine 5 phosphorylation in A549 cells overexpressing CDK7 mutant (C312S); test: Imaging-based cellular RNA PolII Ser5 phosphorylation assay in A549 cells overexpressing CDK7-mutant (C312S); assay type: cell-based, human; conditions: for IC50: Homo sapiens, A549, A549 cells overexpressing CDK7 mutant (C312S), read-out: CDK7_ A549 mutant hCDK7(pIC50) (converted); for CDK7_ A549 mutant hCDK7(pIC50): A549 cells overexpressing CDK7 mutant (C312S)
In short: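 A stably transduced A549 pool overexpressing CDK7 C312S, a mutant that blocks covalent binding at Cys312, while retaining endogenous wild-type CDK7 was used. Ser5 phosphorylation was measured by imaging, and IC50 values were derived.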

[2] = test system: RNA polymerase II Serine 5 phosphorylation (CDK7) in A549 cells
[3] = molecular target: CDK7/cyclinH/MAT1 trimeric complex (Homo sapiens (Human), UniProt P50613); test: In vitro CDK7 assay, potency of irreversible covalent inhibitors (kinact/KI)
CDK7/cyclinH/MAT1 trimeric complex, sequence (P50613 whole entry): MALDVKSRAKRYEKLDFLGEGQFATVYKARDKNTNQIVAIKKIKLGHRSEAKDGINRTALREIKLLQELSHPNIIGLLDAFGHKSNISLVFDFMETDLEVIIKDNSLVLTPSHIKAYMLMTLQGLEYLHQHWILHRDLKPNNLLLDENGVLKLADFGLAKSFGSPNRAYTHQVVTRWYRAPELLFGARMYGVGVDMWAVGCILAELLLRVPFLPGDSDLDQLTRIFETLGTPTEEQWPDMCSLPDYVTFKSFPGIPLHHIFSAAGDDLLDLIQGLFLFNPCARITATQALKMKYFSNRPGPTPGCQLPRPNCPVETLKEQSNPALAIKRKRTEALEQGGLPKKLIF
CDK7/cyclinH/MAT1 trimeric complex, sequence (P51946 whole entry partner): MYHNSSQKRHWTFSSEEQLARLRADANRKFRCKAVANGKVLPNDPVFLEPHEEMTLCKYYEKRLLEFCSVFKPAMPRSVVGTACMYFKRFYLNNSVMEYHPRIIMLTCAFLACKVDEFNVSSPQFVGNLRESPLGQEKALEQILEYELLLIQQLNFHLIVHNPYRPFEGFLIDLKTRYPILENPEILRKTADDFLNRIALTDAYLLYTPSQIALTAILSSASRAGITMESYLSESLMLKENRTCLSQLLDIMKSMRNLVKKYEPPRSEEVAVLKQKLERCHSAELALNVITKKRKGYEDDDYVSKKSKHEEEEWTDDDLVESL
CDK7/cyclinH/MAT1 trimeric complex, sequence (P51948 whole entry partner): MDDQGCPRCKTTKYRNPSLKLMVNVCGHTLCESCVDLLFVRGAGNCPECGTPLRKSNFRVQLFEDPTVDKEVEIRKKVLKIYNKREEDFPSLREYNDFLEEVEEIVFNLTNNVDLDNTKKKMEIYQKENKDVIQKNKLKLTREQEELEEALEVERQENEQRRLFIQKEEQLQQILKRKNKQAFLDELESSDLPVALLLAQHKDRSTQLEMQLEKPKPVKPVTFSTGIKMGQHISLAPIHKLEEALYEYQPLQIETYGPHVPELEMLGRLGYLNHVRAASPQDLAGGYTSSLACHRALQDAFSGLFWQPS

[4] = CDK7 (20 nM enz.) (KI, μM), 20 nM enz.
[5] = read-out: CDK7 (20 nM enz.) (kinact, s^−1), 20 nM enz.
[6] = read-out: CDK7 (20 nM enz.) (kinact/ KI, M^−1*s^−1), 20 nM enz.
[7] = read-out: CDK7 (kinact, s^−1), Table B
[8] = read-out: CDK7 (kinact/KI, M^−1*s^−1), Table B
[9] = read-out: CDK7 (20 nM enz.) (kobs/[I], M^−1*s^−1), 20 nM enz.

IC50 [1]	melting point	IC50 [2]	Ki [3, 4]	kinact [3, 5]	kinact/KI [3, 6]	Ki ([3]; CDK7 (KI(μM)), Table B)	CDK7 (kinact, s^−1) ([3]; Table B)	CDK7 (kinact/KI, M^−1*s^−1) ([3]; Table B)	kinact [3, 7]	kinact/KI [3, 8]	kinact/KI [3, 9]	CDK7_ A549 mutant hCDK7(pIC50) [1]	CDK7 (20 nM enz.) (kinact, s^−1) ([3]; 20 nM enz.)	CDK7 (20 nM enz.) (kinact/ KI, M^−1*s^−1) ([3]; 20 nM enz.)	SMILES
> 10000 nM	220 °C	234 nM	0.0068 µM	2.76e-05 s⁻¹	4030 M⁻¹ s⁻¹	–	–	–	–	–	–	–	–	–	C=CC(=O)N1CCC(N2CC(c3cc4c(c(C5CC5)c3)O[C@@H](C)c3c(ncnc3N3CCS(=O)(=O)CC3)N4)C2)C1 (mixture of isomers) [compound 97]
> 10000 nM	217 °C	912 nM and 676 nM	–	–	–	0.164 µM and 0.152 µM	7.29e-05 s⁻¹	478.485 M⁻¹ s⁻¹	0.000137 s⁻¹	832 M⁻¹ s⁻¹	–	–	–	–	C=CC(=O)N1CC(N2CC[C@H](c3ccc4c(c3)Nc3ncnc(N5CCOCC5)c3CO4)[C@H](C)C2)C1 (single isomer, unassigned) [compound 37]
> 10000 nM	175 °C	209 nM	0.094 µM	5.18e-05 s⁻¹	667 M⁻¹ s⁻¹	–	–	–	–	–	–	–	–	–	C=CC(=O)N1CC(N2CCC(c3cc(F)c4c(c3)Nc3ncnc(N5CCOCC5)c3[C@@H](C)O4)CC2)C1 (single isomer, unassigned) [compound 46]
> 10000 nM	180 °C	178 nM	0.118 µM	5.65e-05 s⁻¹	478 M⁻¹ s⁻¹	–	–	–	–	–	–	–	–	–	C=CC(=O)N1CC(N2CCC(c3cc(F)c4c(c3)Nc3ncnc(N5CCOCC5)c3[C@H](C)O4)CC2)C1 (single isomer, unassigned) [compound 49]
> 10000 nM	245 °C	123 nM	0.0825 µM	5.9e-05 s⁻¹	714 M⁻¹ s⁻¹	–	–	–	–	–	–	–	–	–	C=CC(=O)N1CC(N2CCC(c3cc(F)c4c(c3)Nc3ncnc(-c5cnn(C)c5)c3[C@@H](C)O4)CC2)C1 (single isomer, unassigned) [compound 52]
> 10000 nM	260 °C	> 10000 nM	–	–	–	–	–	–	–	–	3.8 M⁻¹ s⁻¹	–	–	–	C=CC(=O)N1CC(N2CCC(c3cc(F)c4c(c3)Nc3ncnc(-c5cnn(C)c5)c3[C@H](C)O4)CC2)C1 (single isomer, unassigned) [compound 53]
–	250 °C	257 nM	0.283 µM	–	–	–	–	–	–	–	–	<5	5.21e-05 s⁻¹	184.255 M⁻¹ s⁻¹	C=CC(=O)N1CC(N2CCC(c3cc4c(cn3)O[C@H](C)c3c(ncnc3N3CCOCC3)N4)CC2)C1 (single isomer, unassigned) [compound 60]
> 10000 nM	123 °C	646 nM	0.265 µM	3.84e-05 s⁻¹	145 M⁻¹ s⁻¹	–	–	–	–	–	–	–	–	–	C=CC(=O)N1CC(N2CCC(c3ccc4c(c3)Nc3ncnc(N5CCOCC5)c3[C@H](CC)O4)CC2)C1 (single isomer, unassigned) [compound 75]
> 10000 nM	124 °C	1660 nM	0.457 µM	3.9e-05 s⁻¹	85.3 M⁻¹ s⁻¹	–	–	–	–	–	–	–	–	–	C=CC(=O)N1CC(N2CCC(c3ccc4c(c3)Nc3ncnc(N5CCOCC5)c3[C@@H](CC)O4)CC2)C1 (single isomer, unassigned) [compound 76]
> 10000 nM	> 300 °C	112 nM	0.148 µM	8.33e-05 s⁻¹	563 M⁻¹ s⁻¹	–	–	–	–	–	–	–	–	–	C=CC(=O)N1CC(N2CCC(c3cc(C)c4c(c3)Nc3ncnc(N5CCS(=O)(=O)CC5)c3[C@@H](C)O4)CC2)C1 (single isomer, unassigned) [compound 84]
> 10000 nM	240 °C	67.6 nM	–	–	–	–	–	–	–	–	725 M⁻¹ s⁻¹	–	–	–	C=CC(=O)N1CC(N2CCC(c3cc4c(c(C)n3)O[C@H](C)c3c(ncnc3N3CCS(=O)(=O)CC3)N4)CC2)C1 (single isomer, unassigned) [compound 85]
> 10000 nM	247 °C	525 nM	0.117 µM	6.46e-05 s⁻¹	551 M⁻¹ s⁻¹	–	–	–	–	–	–	–	–	–	C=CC(=O)N1CC(N2CCC(c3cc4c(c(C)n3)O[C@@H](C)c3c(ncnc3N3CCS(=O)(=O)CC3)N4)CC2)C1 (single isomer, unassigned) [compound 86]
> 10000 nM	> 300 °C	427 nM	0.277 µM	6.26e-05 s⁻¹	226 M⁻¹ s⁻¹	–	–	–	–	–	–	–	–	–	C=CC(=O)N1CC[C@@H](N2CC(c3cc4c(c(C5CC5)c3)OCc3c(ncnc3N3CCS(=O)(=O)CC3)N4)C2)C1 (single isomer, unassigned) [compound 93]
> 10000 nM	167 °C	537 nM	0.498 µM	8.53e-05 s⁻¹	171 M⁻¹ s⁻¹	–	–	–	–	–	–	–	–	–	C=CC(=O)N1CC[C@H](N2CC(c3cc4c(c(C5CC5)c3)OCc3c(ncnc3N3CCS(=O)(=O)CC3)N4)C2)C1 (single isomer, unassigned) [compound 94]
> 10000 nM	193 °C	~955 nM	0.0708 µM	2.35e-05 s⁻¹	332 M⁻¹ s⁻¹	–	–	–	–	–	–	–	–	–	C=CC(=O)N1CC[C@H](N2CC(c3cc4c(c(C5CC5)c3)O[C@H](C)c3c(ncnc3N3CCS(=O)(=O)CC3)N4)C2)C1 (single isomer, unassigned) [compound 95]
> 10000 nM	233 °C	525 nM	0.0324 µM	2.16e-05 s⁻¹	665 M⁻¹ s⁻¹	–	–	–	–	–	–	–	–	–	C=CC(=O)N1CC[C@@H](N2CC(c3cc4c(c(C5CC5)c3)O[C@H](C)c3c(ncnc3N3CCS(=O)(=O)CC3)N4)C2)C1 (single isomer, unassigned) [compound 96]
~10000 nM	251 °C	51.3 nM and 28.2 nM	0.0288 µM and 0.0678 µM	4.67e-05 s⁻¹	1620 M⁻¹ s⁻¹	–	–	–	–	–	–	<5	8.94e-05 s⁻¹	1318 M⁻¹ s⁻¹	C=CC(=O)N1CC[C@@H](N2CCC(c3cc(C)c4c(c3)Nc3ncnc(N5CCS(=O)(=O)CC5)c3CO4)CC2)C1 (single isomer, unassigned) [compound 114]
–	237 °C	81.3 nM and 79.4 nM and 61.7 nM	0.0292 µM	–	–	–	–	–	–	–	–	<5	4.85e-05 s⁻¹	1658.55 M⁻¹ s⁻¹ and 891.412 M⁻¹ s⁻¹	C=CC(=O)N1CC[C@@H](N2CC(c3cc(C)c4c(c3)Nc3ncnc(N5CCS(=O)(=O)CC5)c3[C@@H](C)O4)C2)C1 (single isomer, unassigned) [compound 122]
> 10000 nM	211 °C	331 nM and 324 nM	0.754 µM	6.34e-05 s⁻¹	98.7 M⁻¹ s⁻¹	0.365 µM	–	–	0.000198 s⁻¹	543 M⁻¹ s⁻¹	–	–	–	–	C=CC(=O)N1CCC(N2CCC(c3ccc4c(c3)Nc3ncnc(N5CCOCC5)c3CO4)CC2)CC1 [compound 2]
> 10000 nM	234 °C	6760 nM	–	–	–	1.79 µM	–	–	0.000178 s⁻¹	99.5 M⁻¹ s⁻¹	–	–	–	–	C=CC(=O)N1CC(C2CCN(c3ccc4c(c3)Nc3ncnc(N5CCOCC5)c3CO4)CC2)C1 [compound 7]
> 10000 nM	191 °C	468 nM	0.183 µM	3.46e-05 s⁻¹	189 M⁻¹ s⁻¹	–	–	–	–	–	–	–	–	–	C=CC(=O)N1CCC(N2CC(c3cc(C)c4c(c3)Nc3ncnc(N5CCOCC5)c3CO4)C2)CC1 [compound 14]
